Laboratory results from ChEMBL document CHEMBL1134096, “Discovery and characterization of the potent, selective and orally bioavailable MMP inhibitor ABT-770” (Bioorg Med Chem Lett, 2001).
Where “and” joins values, the source holds several entries; their conditions need not be identical. Identical values can stand only once.

Legend:
[1] = Half-life was determined in monkey after 3 mg/kg of i.v. dose; assay type: ADME, organism-based; design: dose 3 mg/kg, route intravenous; conditions: cercopithecidae, in vivo, iv
Interstitial collagenase = target: T1, Interstitial collagenase (Homo sapiens, UniProt P03956); assay: In vitro inhibition of human Matrix metalloprotease-1.
T1 sequence (P03956 whole entry): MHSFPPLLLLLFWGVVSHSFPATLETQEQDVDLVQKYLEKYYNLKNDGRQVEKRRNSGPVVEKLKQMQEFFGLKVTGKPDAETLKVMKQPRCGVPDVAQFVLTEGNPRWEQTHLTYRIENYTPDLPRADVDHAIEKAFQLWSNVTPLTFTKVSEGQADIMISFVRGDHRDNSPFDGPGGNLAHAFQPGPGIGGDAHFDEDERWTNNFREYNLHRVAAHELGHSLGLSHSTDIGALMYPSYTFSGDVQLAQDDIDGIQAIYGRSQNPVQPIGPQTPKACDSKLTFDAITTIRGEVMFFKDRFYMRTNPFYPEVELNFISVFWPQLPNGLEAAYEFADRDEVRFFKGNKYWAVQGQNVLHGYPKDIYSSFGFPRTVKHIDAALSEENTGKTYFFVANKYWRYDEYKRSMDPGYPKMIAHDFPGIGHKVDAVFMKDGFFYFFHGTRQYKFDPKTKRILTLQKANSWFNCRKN

[2] = target: 72 kDa type IV collagenase (Homo sapiens, UniProt P08253); assay: In vitro inhibition of human Matrix metalloprotease-2.
Chain of 72 kDa type IV collagenase (P08253 whole entry): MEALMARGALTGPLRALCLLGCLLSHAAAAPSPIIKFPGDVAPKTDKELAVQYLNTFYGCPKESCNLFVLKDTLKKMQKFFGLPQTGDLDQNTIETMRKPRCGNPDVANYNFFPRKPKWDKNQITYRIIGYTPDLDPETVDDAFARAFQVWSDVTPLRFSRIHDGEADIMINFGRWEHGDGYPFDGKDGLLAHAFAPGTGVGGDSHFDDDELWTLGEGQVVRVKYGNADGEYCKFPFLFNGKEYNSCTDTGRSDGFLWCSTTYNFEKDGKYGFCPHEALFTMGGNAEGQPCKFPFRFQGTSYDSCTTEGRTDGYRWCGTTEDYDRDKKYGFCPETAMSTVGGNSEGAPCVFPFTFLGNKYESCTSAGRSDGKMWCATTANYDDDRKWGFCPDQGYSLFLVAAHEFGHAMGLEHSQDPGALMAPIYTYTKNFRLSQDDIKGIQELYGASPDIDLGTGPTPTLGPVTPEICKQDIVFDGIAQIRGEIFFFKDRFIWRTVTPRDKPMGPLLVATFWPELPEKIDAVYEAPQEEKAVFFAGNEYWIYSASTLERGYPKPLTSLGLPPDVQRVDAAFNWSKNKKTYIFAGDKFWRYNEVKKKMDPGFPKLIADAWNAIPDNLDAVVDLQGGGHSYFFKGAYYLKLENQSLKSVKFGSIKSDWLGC

[3] = Area under curve was determined in monkey after a 3 mg/kg of oral dose; assay type: ADME, organism-based; design: dose 3 mg/kg, route oral; conditions: cercopithecidae, in vivo
[4] = Volume of distribution was determined in rat after a 3 mg/kg of iv dose; assay type: ADME, organism-based; design: dose 3 mg/kg, route intravenous; conditions: in vivo, read-out: V
[5] = Half-life was determined in dog after a3 mg/kg of iv dose; assay type: ADME, organism-based, Canis lupus familiaris; conditions: in vivo, 3 mg/kg
[6] = Absolute bioavailability was evaluated in dog; assay type: ADME, organism-based, Canis lupus familiaris; conditions: in vivo
[7] = Volume of distribution was determined in dog after a 3 mg/kg of iv dose; assay type: ADME, organism-based, Canis lupus familiaris; design: dose 3 mg/kg, route intravenous; conditions: in vivo, read-out: V
[8] = Area under curve was determined in dog after a 3 mg/kg of oral dose; assay type: ADME, organism-based, Canis lupus familiaris; design: dose 3 mg/kg, route oral; conditions: in vivo
[9] = Plasma clearance value was determined in monkey after a 3 mg/kg of iv dose; assay type: ADME, organism-based; design: dose 3 mg/kg, route intravenous; conditions: cercopithecidae, in vivo
[10] = Absolute bioavailability was evaluated in monkey; assay type: ADME, organism-based; conditions: cercopithecidae, in vivo
[11] = Volume of distribution was determined in monkey after a 3 mg/kg of iv dose; assay type: ADME, organism-based; design: dose 3 mg/kg, route intravenous; conditions: cercopithecidae, in vivo, read-out: V
Canis familiaris = assay: Plasma clearance value was determined in dog after a 3 mg/kg of iv dose; assay type: ADME, organism-based, Canis lupus familiaris; design: dose 3 mg/kg, route intravenous; conditions: in vivo
[12] = Absolute bioavailability was evaluated in rat; assay type: ADME, organism-based; conditions: in vivo
[13] = Area under curve was determined in rat after a 3 mg/kg of oral dose; assay type: ADME, organism-based; design: dose 3 mg/kg, route oral; conditions: in vivo
Rattus norvegicus = assay: Plasma clearance value was determined in rat after a 3 mg/kg of iv dose; assay type: ADME, organism-based; design: dose 3 mg/kg, route intravenous; conditions: in vivo
B16 = assay: Maximal effective dose against growth of B16 melanoma cells implanted subcutaneously in flank of mice; assay type: functional, Mus musculus
Stromelysin-1 = Stromelysin-1 (Homo sapiens, UniProt P08254); assay: Inhibition of Matrix metalloprotease-3
Chain of Stromelysin-1 (P08254 whole entry): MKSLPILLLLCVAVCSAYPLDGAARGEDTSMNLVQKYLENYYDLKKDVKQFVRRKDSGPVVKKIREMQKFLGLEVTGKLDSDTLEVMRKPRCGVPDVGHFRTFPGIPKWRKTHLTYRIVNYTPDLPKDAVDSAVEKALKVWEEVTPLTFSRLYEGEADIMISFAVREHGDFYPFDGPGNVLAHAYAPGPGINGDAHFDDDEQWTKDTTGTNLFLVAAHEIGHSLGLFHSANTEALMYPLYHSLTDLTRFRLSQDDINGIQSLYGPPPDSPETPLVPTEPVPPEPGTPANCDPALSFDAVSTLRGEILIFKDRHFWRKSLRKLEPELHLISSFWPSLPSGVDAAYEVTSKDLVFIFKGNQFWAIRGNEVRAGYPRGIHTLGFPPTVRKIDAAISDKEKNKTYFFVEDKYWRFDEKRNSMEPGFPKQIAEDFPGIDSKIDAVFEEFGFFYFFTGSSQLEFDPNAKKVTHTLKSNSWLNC

Matrilysin = target: T2, Matrilysin (Homo sapiens, UniProt P09237); assay: Inhibition of Matrix metalloprotease-7
T2 sequence (P09237 whole entry): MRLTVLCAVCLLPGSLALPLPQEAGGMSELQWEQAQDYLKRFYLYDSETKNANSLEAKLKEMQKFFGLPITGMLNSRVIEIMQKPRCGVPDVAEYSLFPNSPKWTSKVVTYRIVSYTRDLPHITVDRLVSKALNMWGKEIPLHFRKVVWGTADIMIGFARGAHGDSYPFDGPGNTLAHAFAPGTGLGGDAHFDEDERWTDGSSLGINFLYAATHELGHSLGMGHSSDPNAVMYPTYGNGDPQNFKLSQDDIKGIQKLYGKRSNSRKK

[14] = target: Matrix metalloproteinase-9 (Homo sapiens, UniProt P14780); assay: Inhibition of matrix metalloprotease-9
Chain of Matrix metalloproteinase-9 (P14780 whole entry): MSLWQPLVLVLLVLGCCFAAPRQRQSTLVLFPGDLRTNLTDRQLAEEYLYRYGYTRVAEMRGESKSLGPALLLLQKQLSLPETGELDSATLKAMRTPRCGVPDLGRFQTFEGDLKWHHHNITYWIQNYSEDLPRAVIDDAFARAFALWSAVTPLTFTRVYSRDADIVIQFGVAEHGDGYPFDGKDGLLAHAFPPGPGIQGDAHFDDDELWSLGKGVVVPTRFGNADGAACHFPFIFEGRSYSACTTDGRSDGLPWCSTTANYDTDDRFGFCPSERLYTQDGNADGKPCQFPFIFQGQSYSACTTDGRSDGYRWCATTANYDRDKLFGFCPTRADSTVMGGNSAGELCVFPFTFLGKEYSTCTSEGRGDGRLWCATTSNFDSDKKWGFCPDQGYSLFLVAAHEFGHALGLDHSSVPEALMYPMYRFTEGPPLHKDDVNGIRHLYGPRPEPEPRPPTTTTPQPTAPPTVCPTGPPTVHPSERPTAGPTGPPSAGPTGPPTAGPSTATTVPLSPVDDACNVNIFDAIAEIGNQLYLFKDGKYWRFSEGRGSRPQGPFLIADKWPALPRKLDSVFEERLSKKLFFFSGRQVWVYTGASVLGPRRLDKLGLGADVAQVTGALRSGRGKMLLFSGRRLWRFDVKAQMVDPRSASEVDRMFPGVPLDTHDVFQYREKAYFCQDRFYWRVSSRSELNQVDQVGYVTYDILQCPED

Mus musculus = assay: Increase in life span corresponding to 6.5 day delay to 1 g tumor weight at 100 mg/kg of oral dose in mice; assay type: functional; conditions: 156 h

Row | IC50 (Interstitial collagenase) [nM] | IC50 [2] [nM] | Structure (SMILES) | other results
1 | 4900 | 48 | CC1(C)NC(=O)N(CC(COc2ccc(-c3ccc(S(C)(=O)=O)cc3)cc2)N(O)C=O)C1=O (stereo not drawn) | half-life [1]: 5 h
2 |  | 58 | CN1C(=O)N(CC(COc2ccc(-c3ccc(C#N)cc3)cc2)N(O)C=O)C(=O)C1(C)C (stereo not drawn) | 
3 | 1100 | 89 | CN1C(=O)N(CC(COc2ccc(-c3ccccc3)cc2)N(O)C=O)C(=O)C1(C)C (stereo not drawn) | 
4 | > 10000 | 61 | C=Cc1ccc(-c2ccc(OCC(CN3C(=O)N(C)C(C)(C)C3=O)N(O)C=O)cc2)cc1 (stereo not drawn) | 
5 | > 10000 | 4 | CCCOc1ccc(-c2ccc(OCC(CN3C(=O)NC(C)(C)C3=O)N(O)C=O)cc2)cc1 (stereo not drawn) | half-life [1]: 1 h
6 | 840 | 20 | CC1(C)NC(=O)N(CC(COc2ccc(-c3ccc(C(F)(F)F)cc3)cc2)N(O)C=O)C1=O (stereo not drawn) | 
7 | > 10000 | 26 | CCCCCOc1ccc(-c2ccc(OCC(CN3C(=O)NC(C)(C)C3=O)N(O)C=O)cc2)cc1 (stereo not drawn) | 
8 | > 10000 | 1300 | CN1C(=O)N(CC(COc2ccc(-c3cccc(C#N)c3)cc2)N(O)C=O)C(=O)C1(C)C (stereo not drawn) | 
9 | 1000 | 1 | CCOc1ccc(-c2ccc(OCC(CN3C(=O)NC(C)(C)C3=O)N(O)C=O)cc2)cc1 (stereo not drawn) | 
10 | 3600 | 130 | CN1C(=O)N(CC(COc2ccc(-c3cccs3)cc2)N(O)C=O)C(=O)C1(C)C (stereo not drawn) | 
11 | 1600 | 85 | CN1C(=O)N(CC(COc2ccc(-c3ccco3)cc2)N(O)C=O)C(=O)C1(C)C (stereo not drawn) | 
12 | 2100 | 8 | CC1(C)NC(=O)N(CC(COc2ccc(-c3ccc(C#N)cc3)cc2)N(O)C=O)C1=O (stereo not drawn) | half-life [1]: 8 h
13 | > 10000 | > 10000 | CN1C(=O)N(CC(COc2ccc(-c3cccnc3)cc2)N(O)C=O)C(=O)C1(C)C (stereo not drawn) | 
14 | 1600 | 20 | Cc1ccc(-c2ccc(OCC(CN3C(=O)N(C)C(C)(C)C3=O)N(O)C=O)cc2)cc1 (stereo not drawn) | 
15 |  | 4 | COc1ccc(-c2ccc(OCC(CN3C(=O)N(C)C(C)(C)C3=O)N(O)C=O)cc2)cc1 (stereo not drawn) | 
16 | > 10000 | 4 | COCCOc1ccc(-c2ccc(OCC(CN3C(=O)NC(C)(C)C3=O)N(O)C=O)cc2)cc1 (stereo not drawn) | half-life [1]: 1 h
17 | > 10000 | > 10000 | CN1C(=O)N(CC(COc2cccc(-c3ccc(C#N)cc3)c2)N(O)C=O)C(=O)C1(C)C (stereo not drawn) | 
18 | > 10000 | 180 | CC1(C)NC(=O)N(C[C@H](COc2ccc(-c3ccc(OC(F)(F)F)cc3)cc2)N(O)C=O)C1=O | IC50 (Stromelysin-1): 3100 nM; IC50 (Matrilysin): > 10000 nM; IC50 [14]: 1200 nM
19 | > 10000 | 16 | CCCCc1ccc(-c2ccc(OCC(CN3C(=O)NC(C)(C)C3=O)N(O)C=O)cc2)cc1 (stereo not drawn) | half-life [1]: 1 h
20 | 8600 | 6 | CC1(C)NC(=O)N(CC(COc2ccc(-c3ccc(OC(F)(F)F)cc3)cc2)N(O)C=O)C1=O (stereo not drawn) | half-life [1]: 20 h

Row | Structure (SMILES) | IC50 (Interstitial collagenase) [nM] | IC50 [2] [nM] | other results
21 | CC1(C)NC(=O)N(C[C@@H](COc2ccc(-c3ccc(OC(F)(F)F)cc3)cc2)N(O)C=O)C1=O | 4600 | 4 | T1/2 [1]: 8 h and 21 h; AUC [3]: 43000 ng·h/mL; Vd [4]: 1.2 L/kg; half-life [5]: 9 h; bioavailability [6]: 83%; Vd [7]: 0.9 L/kg; AUC [8]: 23000 ng·h/mL; Clp [9]: 1.13 mL/min/kg; bioavailability [10]: 95%; Vd [11]: 1.2 L/kg; Clp (Canis familiaris): 1.83 mL/min/kg; bioavailability [12]: 93%; AUC [13]: 24000 ng·h/mL; Clp (Rattus norvegicus): 2 mL/min/kg; Effective dose (B16): 300 mg/kg; IC50 (Stromelysin-1): 42 nM; IC50 (Matrilysin): > 10000 nM; IC50 [14]: 120 nM; ILS at 100 mg/kg (Mus musculus): 46%
